# From ChEMBL document CHEMBL1149204, “A new lead compound for abscisic acid biosynthesis inhibitors targeting 9-cis-epoxycarotenoid dioxygenase” (Bioorg Med Chem Lett, 2004)
# pIC50: −log10 of the molar value.
# Columns and labels:
# [1] = Inhibitory activity was determined against 9-cis-epoxycarotenoid dioxygenase (NCED) expressed in Escherichia coli in presence of 9''-cis-neo-xanthin
# Spinacia oleracea [2] = assay: Effect of compound at 0.4 M concentration on ABA accumulation in spinachleaf slices determined as fresh weight of leaves (Experiment 1); assay type: functional
# Spinacia oleracea [3] = assay: Effect of compound at 0.4 M concentration on ABA accumulation in spinachleaf slices determined as fresh weight of leaves (Experiment 3); assay type: functional
# Spinacia oleracea [4] = assay: Effect of compound at 0.4 M concentration on ABA accumulation in spinachleaf slices determined as fresh weight of leaves (Experiment 2); assay type: functional
# Spinacia oleracea [5] = assay: Effect of compound at 100 uM concentration on ABA accumulation in spinachleaf slices determined as fresh weight of leaves (Experiment 2); assay type: functional
# Spinacia oleracea [6] = assay: Effect of compound at 100 uM concentration on ABA accumulation in spinachleaf slices determined as fresh weight of leaves (Experiment 3); assay type: functional
# Spinacia oleracea [7] = assay: Effect of compound at 100 uM concentration on ABA accumulation in spinachleaf slices determined as fresh weight of leaves (Experiment 1); assay type: functional
SMILES,pIC50 [1],Fresh weight (Spinacia oleracea [2]) [ng/g],Fresh weight (Spinacia oleracea [3]) [ng/g],Fresh weight (Spinacia oleracea [4]) [ng/g],ABA content per fresh weight (Spinacia oleracea [5]) [ng/g],ABA content per fresh weight (Spinacia oleracea [6]) [ng/g],ABA content per fresh weight (Spinacia oleracea [7]) [ng/g]
Oc1ccc(CCNCc2ccccc2O)cc1,3.80,,,,,,
OC[C@@H](O)[C@@H](O)[C@H](O)[C@H](O)CO [MANNITOL],,22.7,134.9,178.4,,,
CC(Cc1ccc(O)c(O)c1)C(C)Cc1ccc(O)c(O)c1 (configuration not stated) [NORDIHYDROGUAIARETIC ACID],3.74,,,,165.3,128.5,20.5
COc1ccc(CCN(C)Cc2ccc(OC)c(OC)c2)cc1,4.06,,,,,,
COC(=O)CN(C/C=C/c1ccc(OC)c(OC)c1)Cc1ccc(F)cc1,4.26,,,,82.8,65.6,14
COc1ccc(NC/C=C/c2ccc(OC)c(OC)c2)cc1,3.84,,,,168.7,137.1,26.1
